# From US11142548B2, “Agents that activate CD47 and their use in the treatment of inflammation” (SORBONNE UNIVERSITE, priority 2016, dated 2021)
# Non-standard residues stand in square brackets, D forms with d. Residues, ends and D or L forms follow the SMILES beside them. NMeR = CN[C@@H](CCCNC(=N)N)C(=O)O; Nle = CCCC[C@H](N)C(=O)O
# What was measured:
# [1] = target: T1, HTRA1 (Homo sapiens, UniProt Q92743); assay: Co-incubation of recombinant TSP1 or TSP2 with recombinant HTRA1 (Coomassie staining, Western blot); assay type: biochemical; details: co-incubation at 37° C. for 24 h, Coomassie gel
# T1 construct: purchased R & D
# Protocol: WB analysis was performed using a monoclonal anti-TSP1 antibody (Abeam), as previously described (Houssier et al., PLoS Med. 2008, 5:e39). RT-PCRs primers were ordered from Taqman, reference: Hs01016151_m1.
# Western blot analysis of the proteins confirmed the disappearance of the whole sized TSP1 and the appearance of several smaller bands in the co-incubated condition (FIG. 3A). […] Next the functionality of rTSP1 and HTRA1-digested TSP1 was analyzed in laser-induced subretinal inflammation in vivo. […] Accordingly, associated choroidal neovascularization, measured as the surface covered by CD102^−CNV on choroidal flatmounts at d7, underwent the same differences (FIG. 3D).
# [2] = test system: human monocytes; assay: Monocyte/RPE co-culture, monocyte number; assay type: cell-based; details: for number of PU1+ Mos, dose response: HTRA1-activated co-cultures, dose dependently
# Excerpt: In accordance with the Declaration of Helsinki, volunteers provided written and informed consent for the human monocyte expression studies, which were approved by the Centre national d'ophthalmologic des Quinze-Vinet hospital (Paris, France) ethics committees (no. 913572). PBMCs were isolated from heparinized venous blood from healthy volunteer individuals by 1-step centrifugation on a Ficoll Paque layer (GE Healthcare) and sorted with EasySep Human Monocyte Enrichment Cocktail without CD16 Depletion Kit (StemCells Technology). Mouse peritoneal macrophages, bone marrow-derived monocytes and photoreceptor outer segment (POS) isolation (all in serum-free X-Vivo 15 medium) were performed as previously described (Sennlaub et al, EMBO Mol Med. 2013, 5:1775-1793). For co-culture experiments the mononuclear monocytes were either stained using CellTrace™ CFSE (Life Technologies®) and then washed three times or they were identified by PU1 immunohistochemistry, a MP-specific transcription factor not expressed in RPE.
# (§1) Fresh pig eyes were obtained from the slaughter house 2-3 hours after enucleation. They were cleaned of surrounding tissue and immersed briefly in antiseptic solution (Pursept®). The anterior part of the eye was removed, as the lens, vitreous and vitreous. The posterior segments were washed 2 times with PBS (Phosphate Buffered Saline) and then incubated at 37° C. in the presence of 0.25% trypsin, to detach the RPE cells. After 1 h incubation, the trypsin solution was removed and the cells recovered in Dulbecco's Modified Eagle's Medium (DMEM) supplemented with 20% fetal calf serum (FCS) decomplemented and in the presence of antibiotics (1% penicillin/Streptomycin). The cells were washed several times and then incubated at 37° C. in culture dishes. Three days after the culturing, these cells were again incubated with by 0.25% trypsin, washed, and seeded into 48 wells culture plates (Grenier®) at a density of 150,000 cells/culture well (300,000 cells/[…] or 500 μL/well). Cell confluence was obtained after 4 days of incubation at 37° C. with optimum cell characteristics (squamous cells, well pigmented). To avoid the aging of these primary cell cultures, all the experiments were conducted between the 5th and 7th day after seeding the culture plates.
# The culture medium of RPE cells was changed the day before the co-culture with DMEM without FCS (DMEM+1% Penicillin/Streptomycin only). Monocytes were plated onto the wells in the presence or absence of RPE cells at a concentration of 200,000 cells/culture well in a 48-well plate.
# Part of co-culture well was brought into contact with 1 ng/ml of Lipopolysaccharide (LPS) from E. coli or recombinant HTRA1 (R & D, 5 μg/ml), to simulate a systemic inflammatory activation (LPS) or microenvironment similar to AMD (increase HTRA1) (see above). […]
# RPE cells were permeabilized, after washing PAF 4%, with a solution of PBS-0.1% Triton-Citrate 0.1%. Nonspecific immunogenic sites were blocked with PBS-0.1% Triton-5% horse serum. After 1 hour, the blocking solution was removed and the cells were placed in presence of the with the primary antibodies (polyclonal rabbit anti-human PU.1, 1/200, LifeTechnologies; polyclonal goat anti-human OTX2, 1/500, R&D) diluted in PBS triton 0.1% and 1% horse serum and incubated at 4° C. for 12 h. After three washes with PBS, the secondary antibody coupled to a fluorochrome and diluted in PBS-0.1% Triton-1% horse serum was added along with DAPI (nuclear staining) and left for 1 hour at temperature ambient and then washed several times with PBS.
# 25 fields per well were analyzed Arrayscan® then the number of cells for each culture condition was counted directly by a computer protocol. All nuclei were labeled with DAPI, monocytes were marked in green 488 nm (CellTrace™ CFSE) or and RPE cells in far red 647 nm (recognition of anti-OTX2 primary antibody). […]
# [3] = test system: porcine RPE; assay: Monocyte/RPE co-culture, RPE cell number (OTX2+ nuclei); assay type: cell-based; details: for number/survival of RPE cells in co-culture: HTRA1 5 μg/mL, OTX2 nuclear marker
# Protocol: as §1
# The culture medium of RPE cells was changed the day before the co-culture with DMEM without FCS (DMEM+1% Penicillin/Streptomycin only). Monocytes were plated onto the wells in the presence or absence of RPE cells at a concentration of 200,000 cells/culture well in a 48-well plate. […]
# 25 fields per well were analyzed Arrayscan® then the number of cells for each culture condition was counted directly by a computer protocol. […] For graphs where quantifications from several plates were pooled (FIGS. 4D and E) results were expressed as the percentage of the number of PU.1 or OTX2 positive cells normalized with the HTRA1 treated condition. […]
# [4] = test system: subretinal IBA-1+ mononuclear monocytes; assay: Laser-induced subretinal inflammation in wildtype- and Tsp1-/- mice; assay type: in vivo, mouse; details: wildtype mice, intravitreal injection at d3, quantification at d7
# Protocol: (§2) Laser-coagulations were performed with a 532 nm ophtalmological laser mounted on an operating microscope (Vitra Laser, 532 nm, 450 mW, 50 ms, and 250 μm): Intravitreal injections of 2 μl of HTRA1 and/or TSP1 were performed using glass capillaries (Eppendorf) and a micro injector. The 2 μl injection solution contained 50 μg/ml TSP1 and HTRA1, corresponding to an intraocular concentration of 5 μg/ml of each protein assuming their dilution by approximately 1/10th in the intra-ocular volume. […] A volume of 2 μl of a 100 μM solution of either PBS, recombinant TSP1 (10 μg/ml), the 4NGG control peptide or the CD47-activating peptide PKT16 (200 μM) was injected at day 4 (when MP infiltration is maximal) and day 7 after the injury and evaluated subretinal inflammation on flatmounted RPE/choroidal flatmounts at day 10.
# (§3) Eyes were enucleated, fixed in 4% PFA 30 minutes and sectioned at the limbus; the cornea and lens were discarded. […] Choroids and retinas were flatmounted and viewed with a fluorescence microscope DM5500B (Leica). IBA-1+ cells were counted on whole RPE/choroidal flatmounts and on the outer segment side of the retina. […]
# [5] = test system: subretinal IBA-1+ MPs; assay: Laser-injury model in Cx3cr1GFP/GFP mice; assay type: in vivo, mouse; details: 2 μl intravitreal at day 4 and day 7, day 10, vs PBS or 4NGG
# Protocol: as §2, §3
# [6] = test system: recruited monocyte-derived inflammatory macrophages (recMφ); assay: Thioglycollate-induced peritonitis; assay type: in vivo, mouse; details: single intra-peritoneal injection at day 1, observed at day 2
# Protocol: Mouse peritoneal exudate cells (PECs) were elicited by i.p. injection of 0,5 ml 3% thioglycollate (T9032, Sigma) into 10 weeks old male C57BL/6J and Cd47^−/− mice. After 1 day, PECs were isolated by flushing of the peritoneum with ice-cold PBS, Mφs were negatively selected by magnetic sorting following the manufacturers protocol (EasySep Mouse Monocyte Enrichment Kit, Stemcell Technologies), resuspended in X-VIVO 15 medium (Lonza), and plated in Lab-Tek® Chamber Slide™ (Nunc®).
# To test whether CD47 influences inflammation resolution in other pathological contexts, a model of acute thioglycollate-induced peritonitis was used, characterized by an early accumulation of neutrophils, followed by recruited monocyte-derived inflammatory macrophages (recMφ), both experiencing an apoptosis-driven elimination at different kinetics (Gautier et al., Blood. 2013, 122:2714-2722).
# T1 sequence (Q92743 23-480): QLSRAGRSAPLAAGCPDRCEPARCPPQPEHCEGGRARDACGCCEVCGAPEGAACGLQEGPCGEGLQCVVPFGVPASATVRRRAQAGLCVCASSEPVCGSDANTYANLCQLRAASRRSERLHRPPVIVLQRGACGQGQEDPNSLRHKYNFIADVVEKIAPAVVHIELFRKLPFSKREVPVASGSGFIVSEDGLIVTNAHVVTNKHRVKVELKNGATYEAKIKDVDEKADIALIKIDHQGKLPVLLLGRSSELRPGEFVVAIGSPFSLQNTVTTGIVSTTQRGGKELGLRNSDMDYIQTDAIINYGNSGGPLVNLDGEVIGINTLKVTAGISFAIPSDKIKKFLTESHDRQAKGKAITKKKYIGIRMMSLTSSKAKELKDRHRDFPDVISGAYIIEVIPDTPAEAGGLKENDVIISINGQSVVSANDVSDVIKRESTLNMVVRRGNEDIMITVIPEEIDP
molecule,measurement,setting,value
"recombinant TSP2: recombinant TSP2, contains one VVM site, resistant to HTRA1",degradation by recombinant HTRA1,[1],no such degradation
"rHTRA1: recombinant HTRA1 (R & D), high-temperature requirement A serine peptidase 1",monocytes survival in co-culture,[2]; HTRA1 5 μg/mL,significantly increased
same,hMos number relative to control conditions,"[2]; HTRA1 5 μg/mL added to co-culture, 24 h",3 to 4 times
same,effect of HTRA1 on Mo number after heat-inactivation,[2]; heat-inactivated HTRA1 (not shown),abolished its effect
same,number/survival of RPE cells in co-culture,[3]; listed as HTRA1,did not influence survival
same,number/survival of RPE cells in co-culture,[3]; listed as Recombinant HTRA1,did not diminish significantly
same,laser-induced subretinal inflammation in wildtype mice,[4],aggravates
"CCCC[C@H](NC(=O)[C@@H](NC(=O)[C@@H](NC(=O)[C@H](Cc1ccc(O)cc1)NC(=O)[C@H](Cc1ccccc1)NC(=O)[C@H](CCCNC(=N)N)N(C)C(=O)[C@H](N)CCCCN)C(C)C)C(C)C)C(=O)N[C@@H](Cc1c[nH]c2ccccc12)C(=O)N[C@@H](CCCCN)C(=O)N[C@H](CCCCN)C(=O)O [PKT16, (D)K-(NMeR)-F-Y-V-V-Nle-W-K-(D)K] (H-[dK][NMeR]FYVV[Nle]WK[dK]-OH)","number of PU1+ Mos, dose response",[2]; 48 h,diminished the number of Mos
same,CFSE+ monocytes number in HTRA1 treated co-culture,"[2]; peptide 100 μM added directly, HTRA1 5 μg/mL, 24 h",completely reversed
same,elimination of subretinal IBA-1+ MPs adjacent to the laser impact,[5],eliminated significantly more efficiently
same,toxicity to RPE cells (number of OTX2+ nuclei),[3]; HTRA1 treated co-culture with peptide,No toxicity
KRFYVVMWKK (4N1K peptide) [reference compound],"number of PU1+ Mos, dose response",[2]; 48 h,diminished the number of Mos
"CSCC[C@H](NC(=O)[C@@H](NC(=O)[C@@H](NC(=O)[C@H](Cc1ccc(O)cc1)NC(=O)[C@H](Cc1ccccc1)NC(=O)[C@H](CCCNC(=N)N)NC(=O)[C@H](N)CCCCN)C(C)C)C(C)C)C(=O)N[C@@H](Cc1c[nH]c2ccccc12)C(=O)N[C@@H](CCCCN)C(=O)N[C@H](CCCCN)C(=O)O [PKHB1, (D)K-R-F-Y-V-V-M-W-K-(D)K]",elimination of recMφs,[6],significantly accelerated the elimination
4N1K-GGGGGGGG-4N1K (KRFYVVMWKKGGGGGGGGKRFYVVMWKK) [d4N1K],Mo elimination compared with 4N1K,"[2]; HTRA1-activated co-cultures, 0, 4, 20 and 50 μM, 48 h",significantly more effective
